According to the OligoGym collection:
HELM strings list units from the 5' end as sugar, base in round brackets, then linkage (d deoxyribose, r ribose, m 2'-O-methyl, p phosphodiester). Strings are as the collection lists them; they lack the last nucleoside at the 3' end of the tested compound. [moe] = 2'-O-(2-methoxyethyl) (MOE); [sp] = phosphorothioate linkage; [m5C] = 5-methylcytosine

Molecular target: ATXN2
Experiment: mouse, dose not given
Details: ASO

Substance	3 h FOB score [score 0-7]
RNA1{[moe](T)[sp].[moe](T)p.[moe](A)p.[moe](G)p.[moe](A)p.d(G)[sp].d(T)[sp].d(T)[sp].d(T)[sp].d(T)[sp].d(T)[sp].d(G)[sp].d([m5C])[sp].d([m5C])[sp].d(T)[sp].[moe](T)p.[moe]([m5C])p.[moe]([m5C])[sp].[moe](A)}$$$$ (last 3' nucleoside missing)	3.5
RNA1{[moe]([m5C])[sp].[moe](T)p.[moe](G)p.[moe]([m5C])p.[moe](T)p.d(A)[sp].d(A)[sp].d([m5C])[sp].d(T)[sp].d(G)[sp].d(G)[sp].d(T)[sp].d(T)[sp].d(T)[sp].d(G)[sp].[moe]([m5C])p.[moe]([m5C])p.[moe]([m5C])[sp].[moe](T)}$$$$ (last 3' nucleoside missing)	6
RNA1{[moe](A)[sp].[moe](A)p.[moe](A)p.[moe](G)p.[moe](A)p.d([m5C])[sp].d(T)[sp].d(T)[sp].d(T)[sp].d(G)[sp].d(A)[sp].d(A)[sp].d(A)[sp].d(T)[sp].d([m5C])[sp].[moe](T)p.[moe]([m5C])p.[moe](A)[sp].[moe]([m5C])}$$$$ (last 3' nucleoside missing)	1
RNA1{[moe]([m5C])[sp].[moe](T)p.[moe]([m5C])p.[moe]([m5C])p.[moe](A)[sp].d(T)[sp].d(T)[sp].d(A)[sp].d(T)[sp].d(T)[sp].d(T)[sp].d([m5C])[sp].d(T)[sp].[moe](T)p.[moe]([m5C])p.[moe](A)[sp].[moe]([m5C])}$$$$ (last 3' nucleoside missing)	3.5
RNA1{[moe](T)[sp].[moe](G)p.[moe]([m5C])p.[moe](T)p.[moe](A)[sp].d(A)[sp].d([m5C])[sp].d(T)[sp].d(G)[sp].d(G)[sp].d(T)[sp].d(T)[sp].d(T)[sp].[moe](G)p.[moe]([m5C])p.[moe]([m5C])[sp].[moe]([m5C])}$$$$ (last 3' nucleoside missing)	6
RNA1{[moe](G)[sp].[moe](T)p.[moe](G)p.[moe](G)p.[moe](T)p.d(G)[sp].d(G)[sp].d(T)[sp].d(G)[sp].d(T)[sp].d(G)[sp].d([m5C])[sp].d(G)[sp].d([m5C])[sp].d(A)[sp].[moe](T)p.[moe](G)p.[moe](T)[sp].[moe](A)}$$$$ (last 3' nucleoside missing)	7
RNA1{[moe](G)[sp].[moe](T)p.[moe](G)p.[moe](T)p.[moe](T)p.d(T)[sp].d(A)[sp].d(A)[sp].d(T)[sp].d(T)[sp].d(T)[sp].d(G)[sp].d(T)[sp].d(A)[sp].d(A)[sp].[moe]([m5C])p.[moe](T)p.[moe](A)[sp].[moe](G)}$$$$ (last 3' nucleoside missing)	4
RNA1{[moe](T)[sp].[moe]([m5C])p.[moe](A)p.[moe](T)p.[moe]([m5C])[sp].d(A)[sp].d(T)[sp].d(T)[sp].d(T)[sp].d(T)[sp].d([m5C])[sp].d([m5C])[sp].d(A)[sp].[moe](G)p.[moe](G)p.[moe](G)[sp].[moe]([m5C])}$$$$ (last 3' nucleoside missing)	1
RNA1{[moe](T)[sp].[moe]([m5C])p.[moe]([m5C])p.[moe](T)p.[moe](T)p.d(G)[sp].d(T)[sp].d(T)[sp].d(G)[sp].d(T)[sp].d(A)[sp].d(T)[sp].d(G)[sp].d(G)[sp].d(T)[sp].[moe](A)p.[moe](A)p.[moe](T)[sp].[moe](T)}$$$$ (last 3' nucleoside missing)	5
RNA1{[moe](T)[sp].[moe](A)p.[moe](T)p.[moe]([m5C])p.[moe](A)p.d(T)[sp].d([m5C])[sp].d(A)[sp].d(T)[sp].d(T)[sp].d(T)[sp].d(T)[sp].d([m5C])[sp].d([m5C])[sp].d(A)[sp].[moe](G)p.[moe](G)p.[moe](G)[sp].[moe]([m5C])}$$$$ (last 3' nucleoside missing)	4.75
RNA1{[moe](G)[sp].[moe](A)p.[moe](T)p.[moe](A)p.[moe](T)p.d(G)[sp].d(T)[sp].d(T)[sp].d(A)[sp].d([m5C])[sp].d(A)[sp].d(A)[sp].d(A)[sp].d(T)[sp].d(T)[sp].[moe]([m5C])p.[moe](T)p.[moe]([m5C])[sp].[moe](T)}$$$$ (last 3' nucleoside missing)	0
RNA1{[moe](A)[sp].[moe](G)p.[moe](A)p.[moe](G)p.[moe](T)p.d(T)[sp].d(T)[sp].d(T)[sp].d(T)[sp].d(G)[sp].d([m5C])[sp].d([m5C])[sp].d(T)[sp].d(T)[sp].d([m5C])[sp].[moe]([m5C])p.[moe](A)p.[moe](T)[sp].[moe](T)}$$$$ (last 3' nucleoside missing)	3
RNA1{[moe](T)[sp].[moe]([m5C])p.[moe](T)p.[moe](G)p.[moe](T)p.d(A)[sp].d([m5C])[sp].d(T)[sp].d(T)[sp].d(T)[sp].d(T)[sp].d([m5C])[sp].d(T)[sp].d([m5C])[sp].d(A)[sp].[moe](T)p.[moe](G)p.[moe](T)[sp].[moe](G)}$$$$ (last 3' nucleoside missing)	0
RNA1{[moe](T)[sp].[moe](G)p.[moe]([m5C])p.[moe](T)p.[moe]([m5C])p.d(T)[sp].d([m5C])[sp].d(T)[sp].d(T)[sp].d(T)[sp].d(G)[sp].d([m5C])[sp].d(G)[sp].d([m5C])[sp].d([m5C])[sp].[moe](T)p.[moe](G)p.[moe](T)[sp].[moe](G)}$$$$ (last 3' nucleoside missing)	5
RNA1{[moe](T)[sp].[moe](G)p.[moe](T)p.[moe](G)p.[moe](A)p.d(G)[sp].d(T)[sp].d(T)[sp].d([m5C])[sp].d(A)[sp].d([m5C])[sp].d([m5C])[sp].d(T)[sp].d(G)[sp].d([m5C])[sp].[moe](A)p.[moe](T)p.[moe]([m5C])[sp].[moe]([m5C])}$$$$ (last 3' nucleoside missing)	3.5
RNA1{[moe]([m5C])[sp].[moe](T)p.[moe](A)p.[moe](T)p.[moe]([m5C])[sp].d(A)[sp].d(T)[sp].d([m5C])[sp].d(A)[sp].d(T)[sp].d(T)[sp].d(T)[sp].d(T)[sp].[moe]([m5C])p.[moe]([m5C])p.[moe](A)[sp].[moe](G)}$$$$ (last 3' nucleoside missing)	1
RNA1{[moe](A)[sp].[moe](G)p.[moe](G)p.[moe]([m5C])p.[moe](A)p.d(T)[sp].d(A)[sp].d(A)[sp].d(A)[sp].d(T)[sp].d(T)[sp].d(T)[sp].d([m5C])[sp].d(A)[sp].d(T)[sp].[moe]([m5C])p.[moe](T)p.[moe](T)[sp].[moe](A)}$$$$ (last 3' nucleoside missing)	0
RNA1{[moe](A)[sp].[moe](T)p.[moe](T)p.[moe]([m5C])p.[moe](T)p.d(G)[sp].d(T)[sp].d(A)[sp].d([m5C])[sp].d(T)[sp].d(T)[sp].d(T)[sp].d(T)[sp].d([m5C])[sp].d(T)[sp].[moe]([m5C])p.[moe](A)p.[moe](T)[sp].[moe](G)}$$$$ (last 3' nucleoside missing)	1
RNA1{[moe](A)[sp].[moe]([m5C])p.[moe](T)p.[moe](G)p.[moe](G)p.d(A)[sp].d(T)[sp].d(T)[sp].d([m5C])[sp].d(T)[sp].d(G)[sp].d(T)[sp].d(A)[sp].d([m5C])[sp].d(T)[sp].[moe](T)p.[moe](T)p.[moe](T)[sp].[moe]([m5C])}$$$$ (last 3' nucleoside missing)	2
RNA1{[moe]([m5C])[sp].[moe](G)p.[moe](T)p.[moe](A)p.[moe](T)[sp].d(G)[sp].d(T)[sp].d(T)[sp].d(T)[sp].d(G)[sp].d(T)[sp].d([m5C])[sp].d(T)[sp].[moe](G)p.[moe](T)p.[moe]([m5C])[sp].[moe](T)}$$$$ (last 3' nucleoside missing)	6
RNA1{[moe](T)[sp].[moe](A)p.[moe]([m5C])p.[moe](T)p.[moe](T)p.[moe](T)p.d(T)[sp].d([m5C])[sp].d(T)[sp].d([m5C])[sp].d(A)[sp].d(T)[sp].d(G)[sp].d(T)[sp].d(G)[sp].d([m5C])[sp].[moe](G)p.[moe](G)[sp].[moe]([m5C])}$$$$ (last 3' nucleoside missing)	5.5
RNA1{[moe](A)[sp].[moe]([m5C])p.[moe](T)p.[moe](T)p.[moe]([m5C])[sp].d(T)[sp].d([m5C])[sp].d(T)[sp].d(A)[sp].d(T)[sp].d(T)[sp].d(T)[sp].d([m5C])[sp].[moe](T)p.[moe](T)p.[moe](T)[sp].[moe](G)}$$$$ (last 3' nucleoside missing)	2
RNA1{[moe](T)[sp].[moe](T)p.[moe]([m5C])p.[moe](T)p.[moe]([m5C])[sp].d(T)[sp].d(A)[sp].d(T)[sp].d(T)[sp].d(T)[sp].d([m5C])[sp].d(T)[sp].d(T)[sp].[moe](T)p.[moe](G)p.[moe](T)[sp].[moe]([m5C])}$$$$ (last 3' nucleoside missing)	1
RNA1{[moe](A)[sp].[moe](G)p.[moe]([m5C])p.[moe](A)p.[moe]([m5C])p.d(A)[sp].d(T)[sp].d(G)[sp].d(A)[sp].d(T)[sp].d(T)[sp].d(G)[sp].d(T)[sp].d(A)[sp].d(A)[sp].[moe](A)p.[moe]([m5C])p.[moe](T)[sp].[moe](A)}$$$$ (last 3' nucleoside missing)	6
RNA1{[moe](T)[sp].[moe]([m5C])p.[moe](T)p.[moe](G)p.[moe](T)[sp].d(A)[sp].d([m5C])[sp].d(T)[sp].d(T)[sp].d(T)[sp].d(T)[sp].d([m5C])[sp].d(T)[sp].[moe]([m5C])p.[moe](A)p.[moe](T)[sp].[moe](G)}$$$$ (last 3' nucleoside missing)	0.5
RNA1{[moe](T)[sp].[moe](G)p.[moe](T)p.[moe](T)p.[moe](A)p.d([m5C])[sp].d(T)[sp].d(G)[sp].d(T)[sp].d(T)[sp].d(T)[sp].d([m5C])[sp].d(G)[sp].d(A)[sp].d([m5C])[sp].[moe]([m5C])p.[moe](T)p.[moe]([m5C])[sp].[moe](T)}$$$$ (last 3' nucleoside missing)	6.25
RNA1{[moe](G)[sp].[moe](A)p.[moe](A)p.[moe](G)p.[moe]([m5C])p.d(A)[sp].d(G)[sp].d(A)[sp].d(T)[sp].d(T)[sp].d(T)[sp].d(T)[sp].d(T)[sp].d(T)[sp].d(T)[sp].[moe](T)p.[moe](T)p.[moe](T)[sp].[moe](T)}$$$$ (last 3' nucleoside missing)	3
